Data on 4 compounds can be found in patent EP0462935B1, “Enantiomers of 2-tetrahydrofuran derivatives, intermediates therefor and their preparation” (SANDOZ AG, priority 1990, dated 1991).

Test [1] concerns Chronic relapsing experimental allergic encephalomyelitis. Briefly: Chronic relapsing experimental allergic encephalomyelitis (CR-EAE test), therapeutic treatment. In kind it is in vivo, rat. The settings on record: 5 to 50 mg/kg/day p.o. for 16 days starting on day 16; for inhibiting the appearance of mild to severe clinical symptoms: for the period of treatment; for protective efficacy: during treatment and following discontinuation of drug.

The test system of test [2] is Delayed-type hypersensitivity. In words: Delayed-type hypersensitivity (DTH test) mediated by cloned helper T cells. In kind it is in vivo, mouse. The settings on record: footpad swelling after 24 h. As to the method:
4. Delayed-type hypersensitivity (DTH test) in the mouse:
Suppression of DTH mediated by cloned helper T cells is tested with mice injected subcutaneously with cloned helper T cells together with the relevant antigen, namely sheep erythrocytes, in one hind footpad and with the same clone plus an unrelated antigen as control in the other footpad. The drugs are administered orally twice, first one day before and again at the time of the cell injection. After 24 h the increase in footpad thickness is measured. Footpad swelling is indicated as percentage compared with the control group (placebo).

Test [3] concerns Experimental allergic encephalomyelitis. In words: Experimental allergic encephalomyelitis (EAE test), preventive treatment. The settings on record: for Animals with total paralysis) % / Animals with total paralysis) No./total: preventive treatment, 25 mg/kg/day p.o., rat; for Animals with total paralysis) No./total: number of animals with total paralysis per total number of rats treated. In kind it is in vivo, rat. As for the experimental part: 1. Experimental allergic encephalomyelitis (EAE test) in the rat; preventive treatment:
[Levine et al., Am. J. Path. 47 (1965) 61; McFarlin et al., J. Immunol. 113 (1974) 712; Borel, Transplant. & Clin. Immunol. 13 (1981) 3]:
Male Wistar rats are injected in the hind paws with 0.1 ml of a mixture of bovine spinal cord and complete Freund's adjuvant. The test compound is administered at dosages of from 5 to 50 mg/kg/day p.o. 5 days a week, commencing on the day of sensitization and continuing for 2 weeks. Onset of EAE in control groups receiving no medication generally commences between 9 to 16 days after sensitization and is marked by symptoms of paralysis in the hind limbs and tail. Test animals are examined daily for symptoms of the disease and disease occurrence is scored according to their severity. Total paralysis means complete involvement of both hind legs and tail. The test animals are kept under observation for a total period of 50 days.

The test system of another test is YAC-1. In words: Tumor cell cytotoxicity test (TCC test). The test is classed as cell-based. Particulars: 72 hours. As for the experimental part: (§1) 1. Tumor cell cytotoxicity test (TCC test):
(§2) In flat bottom microtiter plates (Nunc Roskieide, Denmark) are placed Abelson 8.1 lymphoma, YAC-1, L1210 or P815 tumor cells in Dulbecco modified Eagle's medium (DMEM) + 10 % fetal calf serum and the tumor cell-containing plates are incubated with 1, 3 and 5 »g of the test compound for a period of 6 to 72 hours. The number of viable tumor cells present in the Abelson 8.1, YAC-1, L1210 and P815 assays is determined by measuring the alkaline phosphatase in the following manner: the tumor cell plates are centrifuged (500 x g) for ten minutes and the supernatant flicked off. Without further washing, 100 »l of buffer containing 20 »l of diethanolamine, 2 »M of MgCl₂·6H₂O, 2.5 »M of p-nitrophenylphosphate and 10 mg Triton X-100 are added. The samples are incubated for 60 minutes at room temperature and the enzymatic reaction is terminated by the addition of 100 »l of 0.5 N NaOH. The absorbance is then measured at […] using a Titertek Multiskan apparatus.
(§3) At an incubation period of 72 hours the following results were obtained: […]

The subject of a further test is L1210. In words: Tumor cell cytotoxicity test (TCC test). The settings on record: 72 hours. In kind it is cell-based. As for the experimental part:
as §1, §2, §3

A further test deals with Abelson 8.1 lymphoma. In words: Tumor cell cytotoxicity test (TCC test). The test is classed as cell-based. Particulars: 72 hours. As for the experimental part: as §1, §2, §3
The subject of a further test is P815. Briefly: Tumor cell cytotoxicity test (TCC test). The test is classed as cell-based. Particulars: 72 hours. As to the method:
as §1, §2, §3

The subject of the next test is Meth A fibrosarcoma. In words: In vivo Meth A fibrosarcoma test. Set-up: species or system mouse. The settings on record: for Tumor volume (% of control) day 7: day 7 after tumor implantation; for Survivors (tumor free): ten CBF₁ mice.
For test [4], the system named is Experimental allergic encephalomyelitis. In words: Experimental allergic encephalomyelitis (EAE test), therapeutic treatment. The test is classed as in vivo, rat. As to the method: 2. Experimental allergic encephalomyelitis (EEA test) in the rat; therapeutic treatment:
Testing is carried out analogously to that described above with the exception that the administration of the test compound commences on day 7 after sensitization (i.e. immediately prior to appearance of disease symptoms) at dosages of from 5 to 50 mg/kg/day p.o. either daily or every second day and continuing for one week. During the testing period the animals are examined daily for symptoms of the disease and scored as in the previous test method.

Structures are written as SMILES. Structures can show the parent of a compound that is named as a salt.

Method for Meth A fibrosarcoma: In vivo Meth A fibrosarcoma test in the mouse:
Ten CBF₁ mice of 10-12 week age are each implanted with 7.3 x 10⁶ Meth A sarcoma cells to serve as control. A second group of ten CBF₁ mice are each implanted with 7.3 x 10⁶ Meth A sarcoma cells and on day one after implant each mouse is treated p.o. with from 5 »g to 50 »g of the test compound per day for a total of twenty or twenty-seven days. Tumor growth and survivors are assayed on days 7, 14, 21 and 28 after tumor implantation.

Regarding `CCCCCCCCCCCCCCCCCCOCC1(COP(=O)([O-])OCC[N+](C)(C)C)CCCO1` (racemic) [compound of Example 5 of USP 4'673'672], the “inhibiting the appearance of mild to severe clinical symptoms” value in test [1] was “effective”.
Consider `CCCCCCCCCCCCCCCCCCOC[C@]1(COP(=O)([O-])OCC[N+](C)(C)C)CCCO1` [Enantiomer of the compound of formula I, (S)-2-[(2-Octadecyloxymethyltetrahydrofuran-2-ylmethoxy)-hydroxyphosphinyloxy)-N,N,N-trimethylethanaminium hydroxide inner salt-4-oxide], for which the “Suppression of DTH (%)” value in test [2] (2 x 40 mg/kg orally) amounted to 16%; in test [2] (2 x 80 mg/kg orally) it was 40%. The protective efficacy result in test [1] is “much less effective protective efficacy during treatment”. Besides, the “Animals with total paralysis) %” value in test [3] was found to be 86%. For the same compound, the “Animals with total paralysis) No./total” value in [3] is on record as 12/14. Also, the “Inhibition with tumor cells (%) YAC-1” value in the test with YAC-1 (1 »g/ml) came to 40%; in the test with YAC-1 (3 »g/ml) it was 78%; in the test on YAC-1 (5 »g/ml), 91%. For the same compound, the figures for the “Inhibition with tumor cells (%) L1210” value in the test with L1210 (1 »g/ml), in the test with L1210 (3 »g/ml) and with L1210 (5 »g/ml) were 45%, 92% and 97%, respectively. Further, the “Inhibition with tumor cells (%) Abelson 8.1” value (from here on “Inhibition … (%) Abelson 8.1”) with Abelson 8.1 lymphoma (1 »g/ml) stood at 91%; with Abelson 8.1 lymphoma (3 »g/ml), 98%; in the test on Abelson 8.1 lymphoma (5 »g/ml), 98%. Further, the “Inhibition with tumor cells (%) P815” value was 84% in the test with P815 (1 »g/ml), 93% in the test with P815 (3 »g/ml) and 97% in the test on P815 (5 »g/ml). For the same compound, the “Tumor volume (% of control) day 7” value in the test on Meth A fibrosarcoma (5 »g per mouse per day p.o.) is given as 66 % of control; in the test on Meth A fibrosarcoma (50 »g per mouse per day p.o.) it was 70 % of control. Also, the “Tumor volume (% of control) day 14” value in the test with Meth A fibrosarcoma (5 »g per mouse per day p.o.) was 19 % of control; with Meth A fibrosarcoma (50 »g per mouse per day p.o.), 28 % of control. For the same compound, the “Tumor volume (% of control) day 21” value is given as 6 % of control with Meth A fibrosarcoma (5 »g per mouse per day p.o.) and 8 % of control in the test on Meth A fibrosarcoma (50 »g per mouse per day p.o.). Also, the figures for the “Tumor volume (% of control) day 28” value with Meth A fibrosarcoma (5 »g per mouse per day p.o.) and in the test on Meth A fibrosarcoma (50 »g per mouse per day p.o.) were 11 % of control and 13 % of control, respectively. The “Survivors (tumor free)” value is reported as 8/10 with Meth A fibrosarcoma (5 »g per mouse per day p.o.); 8 out of 10 in the test with Meth A fibrosarcoma (5 »g per mouse per day p.o., listed as (S)-isomer); 8/10 in the test with Meth A fibrosarcoma (50 »g per mouse per day p.o.).
`CCCCCCCCCCCCCCCCCCOCC1(COP(=O)([O-])OCC[N+](C)(C)C)CCCO1` (racemic) [Example 5 of USP 4'673'672, reference compound]: the “Suppression of DTH (%)” value in test [2] (2 x 40 mg/kg orally) is 31%; in [2] (2 x 80 mg/kg orally), 88%. The “Animals with total paralysis) %” value in test [3] was found to be 43%. Moreover, the “Animals with total paralysis) No./total” value in test [3] was 3/7. Moreover, the “Inhibition with tumor cells (%) YAC-1” value in the test on YAC-1 (1 »g/ml) turned out to be 19%; with YAC-1 (3 »g/ml) it was 74%; with YAC-1 (5 »g/ml) it was 91%. Further, the “Inhibition with tumor cells (%) L1210” value in the test on L1210 (1 »g/ml) is 0%; in the test on L1210 (3 »g/ml) it was 80%; in the test on L1210 (5 »g/ml) it was 91%. For the same compound, the “Inhibition … (%) Abelson 8.1” value in the test on Abelson 8.1 lymphoma (1 »g/ml) is 68%; in the test on Abelson 8.1 lymphoma (3 »g/ml), 97%; in the test with Abelson 8.1 lymphoma (5 »g/ml), 98%. For the same compound, the “Inhibition with tumor cells (%) P815” value in the test with P815 (1 »g/ml) was 40%; with P815 (3 »g/ml), 87%; in the test on P815 (5 »g/ml), 95%. In addition, in [4] (therapeutic treatment from day 7, 25 mg/kg/day p.o., rat), the “Animals with EAE) %” value turned out to be 29%. The “Animals with EAE) No./total” value in test [4] (therapeutic treatment from day 7, 25 mg/kg/day p.o., rat, number of animals with symptoms of disease per total number of rats treated) is reported as 2/7. In addition, the “Tumor volume (% of control) day 7” value with Meth A fibrosarcoma (5 »g per mouse per day p.o.) is recorded as 82 % of control; in the test with Meth A fibrosarcoma (50 »g per mouse per day p.o.) it was 76 % of control. The “Tumor volume (% of control) day 14” value is 47 % of control in the test on Meth A fibrosarcoma (5 »g per mouse per day p.o.) and 38 % of control in the test on Meth A fibrosarcoma (50 »g per mouse per day p.o.). Further, the “Tumor volume (% of control) day 21” value is recorded as 20 % of control in the test on Meth A fibrosarcoma (5 »g per mouse per day p.o.) and 14 % of control in the test on Meth A fibrosarcoma (50 »g per mouse per day p.o.). Besides, the “Tumor volume (% of control) day 28” value with Meth A fibrosarcoma (5 »g per mouse per day p.o.) is reported as 32 % of control; in the test with Meth A fibrosarcoma (50 »g per mouse per day p.o.), 21 % of control. In addition, the “Survivors (tumor free)” value with Meth A fibrosarcoma (5 »g per mouse per day p.o.) is reported as 3/10; in the test on Meth A fibrosarcoma (50 »g per mouse per day p.o.), 6/10.
On to `CCCCCCCCCCCCCCCCCCOC[C@@]1(COP(=O)([O-])OCC[N+](C)(C)C)CCCO1` [Compound of formula I, (R)-2-[(2-Octadecyloxymethyltetrahydrofuran-2-ylmethoxy)-hydroxyphosphinyloxy]-N,N,N-trimethylethanaminium hydroxide inner salt-4-oxide], for which the “Suppression of DTH (%)” value in [2] (2 x 40 mg/kg orally) was found to be 73%; in test [2] (2 x 80 mg/kg orally), 88%. In addition, in test [1], the protective efficacy result was “effective to fully protect all animals both during treatment and following discontinuation of drug”. Besides, the “inhibiting the appearance of mild to severe clinical symptoms” value in test [1] is given as “effective”. The “occurrence of clinical symptoms” value in test [3] (5 to 50 mg/kg/day p.o. 5 days a week for 2 weeks, versus placebo control groups) is reported as “substantial reduction of occurrence of clinical symptoms”. In test [3], the “Animals with total paralysis) %” value turned out to be 36%. Moreover, the “Animals with total paralysis) No./total” value in test [3] is recorded as 5/14. Further, the “Inhibition with tumor cells (%) YAC-1” value in the test with YAC-1 (1 »g/ml) was 8%; with YAC-1 (3 »g/ml) it was 86%; with YAC-1 (5 »g/ml), 96%. Further, the “Inhibition with tumor cells (%) L1210” value in the test on L1210 (1 »g/ml) was 16%; in the test on L1210 (3 »g/ml) it was 76%; with L1210 (5 »g/ml) it was 87%. The “Inhibition … (%) Abelson 8.1” value was 29% in the test with Abelson 8.1 lymphoma (1 »g/ml), 93% with Abelson 8.1 lymphoma (3 »g/ml) and 95% in the test on Abelson 8.1 lymphoma (5 »g/ml). Further, the “Inhibition with tumor cells (%) P815” value is listed as 32% in the test on P815 (1 »g/ml), 80% in the test on P815 (3 »g/ml) and 97% in the test with P815 (5 »g/ml). Further, in test [4] (5 to 50 mg/kg/day p.o. from day 7 for one week, versus placebo control groups), the “appearance of EAE disease symptoms” value is reported as “substantial reduction of appearance of EAE disease symptoms”. Further, the “Tumor volume (% of control) day 7” value with Meth A fibrosarcoma (5 »g per mouse per day p.o.) was 90 % of control; in the test on Meth A fibrosarcoma (50 »g per mouse per day p.o.), 85 % of control. Further, the “Tumor volume (% of control) day 14” value in the test on Meth A fibrosarcoma (5 »g per mouse per day p.o.) is 52 % of control; with Meth A fibrosarcoma (50 »g per mouse per day p.o.), 53 % of control. Also, the “Tumor volume (% of control) day 21” value in the test with Meth A fibrosarcoma (5 »g per mouse per day p.o.) and in the test with Meth A fibrosarcoma (50 »g per mouse per day p.o.) was 21 % of control in each case. Also, the “Tumor volume (% of control) day 28” value was 37 % of control with Meth A fibrosarcoma (5 »g per mouse per day p.o.) and 32 % of control in the test with Meth A fibrosarcoma (50 »g per mouse per day p.o.). Moreover, the entries for the “Survivors (tumor free)” value in the test with Meth A fibrosarcoma (5 »g per mouse per day p.o.) and with Meth A fibrosarcoma (50 »g per mouse per day p.o.) were 2/10 and 3/10, respectively.
